One assay addresses DGKζ (Homo sapiens (Human), UniProt Q13574). Description: Biochemical DGK IC50 assay, DGKζ ADP-Glo assay. Particulars: 0.5 nM enzyme, 140 μM ATP, 80 μM DAG; read-out: DGKζ ADP-Glo assay IC50. The method, then:
(§1) Enzymatic reactions of DGKζ, DGKα and DGKδ were performed using ADP-Glo assay with lipid micelle substrate. […] Full length DGKα (D21-10BG, SignalChem) and full length DGKδ (D23-10G, SignalChem) were purchased. Lipid micelle was prepared by dissolving DAG (Sigma, 317505-10MG) and PS (Sigma, P7769-100MG) with chloroform which was furtherly removed by rotary evaporation. The resulted product was resuspended in buffer containing 25 mM HEPES pH 7.0, 0.5 mM EDTA and 160 mM Octyl β-D glucopyranoside by vigorous mixing and ultrasonic (IID, Scientz).
(§2) The ranges of compounds final concentration were 1.55˜10000 nM or 23.3˜150000 nM. 3 μL 2× enzyme solution was added to wells.
Human His-TEV-DGK-zeta-pFastBac1 and human baculovirus samples was generated using the Bac-to-Bac baculovirus expression system (Invitrogen) according to the manufacturer's protocol. The DNA used for expression of DGK-zeta, have SEQ ID Nos: 1. Baculovirus amplification was achieved using infected SF9 cells at 1:2000 virus/cells ratios, and grown for 96 hours at 27° C. post-transfected.
The expression scaled up for each protein was carried out in the […] from CORNING. 4 L of 3×10^6 cells/mL Sf9 cells (Expression System, Invitrogen) grown in SF900™ II SFM insect medium (Expression System) was infected with virus stock at 1:200 virus/cells ratio, and grown for 48 hours at 27° C. post-transfection. The infected cell culture was harvested by centrifugation at 6000 rpm for 15 min 4° C. in a SORVALL LYNX6000 centrifuge. The cell pellets were stored at −80° C.
Full length human DGKζ produced as described above, was purified from Sf9 baculovirus-infected insect cell paste. The cells were lysed using sonication method, and the lysates were clarified by centrifugation.

The target in a further assay is DGKα (Homo sapiens (Human), UniProt P23743). Description: Biochemical DGK IC50 assay, DGKα ADP-Glo assay. The following applies: 7.5 nM enzyme, 140 μM ATP, 80 μM DAG. The method, then:
as §1, §2

DGKζ, sequence (Q13574 other isoform, or with tags, fused parts or gaps): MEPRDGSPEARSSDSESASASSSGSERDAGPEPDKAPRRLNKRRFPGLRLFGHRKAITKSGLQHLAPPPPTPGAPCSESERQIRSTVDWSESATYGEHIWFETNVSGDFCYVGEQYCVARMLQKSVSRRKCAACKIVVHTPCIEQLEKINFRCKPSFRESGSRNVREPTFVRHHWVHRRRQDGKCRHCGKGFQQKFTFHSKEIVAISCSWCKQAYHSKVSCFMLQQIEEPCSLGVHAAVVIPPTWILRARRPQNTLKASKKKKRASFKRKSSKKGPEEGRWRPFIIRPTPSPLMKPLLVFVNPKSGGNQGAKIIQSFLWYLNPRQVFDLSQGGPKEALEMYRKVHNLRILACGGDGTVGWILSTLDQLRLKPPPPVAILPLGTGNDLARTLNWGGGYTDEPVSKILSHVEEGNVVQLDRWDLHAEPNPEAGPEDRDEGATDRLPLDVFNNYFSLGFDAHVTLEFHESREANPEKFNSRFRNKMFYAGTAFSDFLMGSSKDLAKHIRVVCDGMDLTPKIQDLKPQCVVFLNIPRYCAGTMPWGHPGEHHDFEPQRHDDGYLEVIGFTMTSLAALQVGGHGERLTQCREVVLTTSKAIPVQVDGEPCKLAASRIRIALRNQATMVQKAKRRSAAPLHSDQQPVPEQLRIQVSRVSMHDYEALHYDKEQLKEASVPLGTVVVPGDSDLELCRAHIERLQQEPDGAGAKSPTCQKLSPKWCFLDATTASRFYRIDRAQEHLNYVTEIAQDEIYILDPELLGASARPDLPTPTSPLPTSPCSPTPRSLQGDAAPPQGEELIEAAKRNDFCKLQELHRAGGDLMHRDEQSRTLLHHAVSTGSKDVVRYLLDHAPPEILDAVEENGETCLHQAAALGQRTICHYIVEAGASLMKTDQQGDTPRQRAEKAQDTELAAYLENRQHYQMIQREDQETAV
DGKα, sequence (P23743 whole entry): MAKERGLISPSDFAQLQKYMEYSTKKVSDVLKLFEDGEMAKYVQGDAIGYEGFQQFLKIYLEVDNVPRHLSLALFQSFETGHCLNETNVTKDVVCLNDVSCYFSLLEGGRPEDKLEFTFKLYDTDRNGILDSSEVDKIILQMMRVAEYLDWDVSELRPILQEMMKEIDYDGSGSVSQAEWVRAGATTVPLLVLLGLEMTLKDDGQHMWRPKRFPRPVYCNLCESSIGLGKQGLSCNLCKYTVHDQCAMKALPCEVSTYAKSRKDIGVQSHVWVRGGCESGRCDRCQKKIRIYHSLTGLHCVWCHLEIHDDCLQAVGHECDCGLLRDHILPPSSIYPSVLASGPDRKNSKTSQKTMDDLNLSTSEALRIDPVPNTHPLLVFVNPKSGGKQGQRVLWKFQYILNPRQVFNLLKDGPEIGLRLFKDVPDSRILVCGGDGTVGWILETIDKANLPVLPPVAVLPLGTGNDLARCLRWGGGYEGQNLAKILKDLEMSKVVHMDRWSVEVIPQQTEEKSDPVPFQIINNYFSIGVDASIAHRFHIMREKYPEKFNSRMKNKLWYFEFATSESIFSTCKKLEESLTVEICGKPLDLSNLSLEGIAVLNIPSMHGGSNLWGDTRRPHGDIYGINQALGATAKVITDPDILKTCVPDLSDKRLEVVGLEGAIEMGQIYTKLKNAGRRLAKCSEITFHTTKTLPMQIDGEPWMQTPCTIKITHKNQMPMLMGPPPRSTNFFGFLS

In the case of `COC(C)c1cc(F)ccc1C(C)N1C[C@H](C)N(c2cc(=O)n(C)c3cn(CC#N)nc23)C[C@H]1C` (single isomer, unassigned) [Compound A286b], the half-inhibitory concentration (IC50) stood at 17 nM at DGKζ and 51500 nM against DGKα. Take `CC[C@H]1CN(C(C)c2ccc3ccccc3c2)[C@H](CC)CN1c1cc(=O)n(C)c2cn(CC#N)nc12` (stereo partly shown) [Compound A50]: the results for the IC50 at DGKζ and against DGKα were 720 nM and 790 nM, respectively. The corresponding values for `CC#CCn1cc2c(n1)c(N1C[C@@H](CC)N(C(C)c3ccc4nccnc4c3)C[C@@H]1CC)cc(=O)n2C` (stereo partly drawn) [Compound A23, 2-(but-2-yn-1-yl)-7-((2S,5R)-2,5-diethyl-4-(1-(quinoxalin-6-yl)ethyl)piperazin-1-yl)-4-methyl-2,4-dihydro-5H-pyrazolo[4,3-b]pyridin-5-one] are 57 nM and 120 nM. The corresponding values for `CC(c1ccc(F)cc1CC#N)N1C[C@H](C)N(c2cc(=O)n(C)c3cn(CC#N)nc23)C[C@H]1C` (single isomer, unassigned) [Compound A287b] are 567 nM and over 10000 nM. `CC[C@@H]1CN(c2cc(=O)n(C)c3cn(CC#N)nc23)[C@@H](C)CN1C(c1ccc(F)cc1)c1ccc(C(F)(F)F)cn1` (stereo partly drawn) [Compound A332, 2-(7-((2S,5R)-5-ethyl-4-((4-fluorophenyl)(5-(trifluoromethyl)pyridin-2-yl)methyl)-2-methylpiperazin-1-yl)-4-methyl-5-oxo-4,5-dihydro-2H-pyrazolo[4,3-b]pyridin-2-yl)acetonitrile]: the half-inhibitory concentration (IC50) turned out to be 169 nM at DGKζ and 123 nM against DGKα. The corresponding values for `CC[C@H]1CN(C(C)c2cccc(CN(C)C)c2)[C@H](CC)CN1c1cc(=O)n(C)c2cn(CC#N)nc12` (stereo partly shown) [Compound A151] are 2040 nM and over 10000 nM. For `CC[C@H]1CN(C(C)c2nc3ccccc3s2)[C@H](CC)CN1c1cc(=O)n(C)c2cn(CC#N)nc12` (stereo partly drawn) [Compound A52, 2-(7-((2S,5R)-4-(1-(benzo[d]thiazol-2-yl)ethyl)-2,5-diethylpiperazin-1-yl)-4-methyl-5-oxo-4,5-dihydro-2H-pyrazolo[4,3-b]pyridin-2-yl)acetonitrile] the same measures were 72 nM and 31 nM. With `CC(c1ccc2nccnc2c1)N1C[C@H](C)N(c2cc(=O)n(C)c3cn(C(C)C)nc23)C[C@H]1C` (stereo partly shown) [Compound A18], the values for the IC50 on DGKζ and on DGKα were 3700 nM and 5700 nM, respectively. The corresponding values for `CC(c1ccc2nccnc2c1)N1C[C@H](C)N(c2cc(=O)n(C)c3cn(C4(C#N)CC4)nc23)C[C@H]1C` (stereo partly drawn) [Compound A16, 1-(7-((2S,5R)-2,5-dimethyl-4-(1-(quinoxalin-6-yl)ethyl)piperazin-1-yl)-4-methyl-5-oxo-4,5-dihydro-2H-pyrazolo[4,3-b]pyridin-2-yl)cyclopropane-1-carbonitrile] are 4200 nM and 9600 nM. Turning to `CCc1c(C(C)N2C[C@H](CC)N(c3cc(=O)n(C)c4cn(CC#N)nc34)C[C@H]2CC)cnn1C` (single isomer, unassigned) [Compound A213a], the IC50 at DGKζ is 1360 nM; at DGKα it was over 10000 nM. The corresponding values for `CC[C@H]1CN(C(C)c2c(F)cncc2F)[C@H](CC)CN1c1cc(=O)n(C)c2cn(CC#N)nc12` (stereo partly shown) [Compound A87] are 211 nM and 114 nM. For `CC[C@H]1CN(C(C)c2nc3ccccc3n2CCO)[C@H](CC)CN1c1cc(=O)n(C)c2cn(CC#N)nc12` (stereo partly shown) [Compound A214] the same measures were 3430 nM and over 10000 nM. Take `CC[C@H]1CN(C(C)c2ccc(OC(C)C)cn2)[C@H](CC)CN1c1cc(=O)n(C)c2cn(CC#N)nc12` (stereo partly shown) [Compound A140]: the IC50 at DGKζ came out at 189 nM; against DGKα, 82 nM. The corresponding values for `CC[C@H]1CN(C(C)c2nccn2CC)[C@H](CC)CN1c1cc(=O)n(C)c2cn(CC#N)nc12` (stereo partly shown) [Compound A174] are 57900 nM and 105000 nM. The corresponding values for `CC#CCn1cc2c(n1)c(N1C[C@@H](C)N([C@H](C)c3ccc4nccnc4c3)C[C@@H]1C)cc(=O)n2C` [Compound A22a, 2-(but-2-yn-1-yl)-7-((2S,5R)-2,5-dimethyl-4-((R)-1-(quinoxalin-6-yl)ethyl)piperazin-1-yl)-4-methyl-2,4-dihydro-5H-pyrazolo[4,3-b]pyridin-5-one] are 13000 nM and 1100 nM. Take `CC[C@H]1CN(C2CCc3ccccc32)[C@H](CC)CN1c1cc(=O)n(C)c2cn(CC#N)nc12` (single isomer, unassigned) [Compound A149b]: the IC50 turned out to be 2250 nM at DGKζ and 191 nM on DGKα. For `C[C@@H](c1ccc2nccnc2c1)N1CCN(c2cc(=O)n(C)c3cn(CC#N)nc23)CC1C(N)=O` (single isomer, unassigned) [Compound A198a] the same measures were over 10000 nM and over 10000 nM. With `CC[C@H]1CN(C(C)c2nc3cc(C(F)(F)F)ccc3n2CC)[C@H](CC)CN1c1cc(=O)n(C)c2cn(CC#N)nc12` (single isomer, unassigned) [Compound A203b], the figures for the IC50 at DGKζ and against DGKα were 233 nM and over 10000 nM, respectively.

With `CC[C@H]1CN(C(C)c2ccccc2OC)[C@H](CC)CN1c1cc(=O)n(C)c2cn(CC#N)nc12` (single isomer, unassigned) [Compound A106a], the values for the IC50 on DGKζ and against DGKα were 2190 nM and over 10000 nM, respectively. The corresponding values for `CC[C@H]1CN(C(C)c2ccc3nccnc3c2)[C@H](CC)CN1c1cc(=O)n(CC(F)F)c2cn(CC#N)nc12` (single isomer, unassigned) [Compound A139b] are 5740 nM and over 10000 nM. For `C[C@H]1CN([C@@H](C)c2ccc3c(c2)OC(C)(C)CO3)[C@@H](C)CN1c1cc(=O)n(C)c2cn(CC#N)nc12` [Compound A46a] the same measures were over 10000 nM and over 10000 nM. With `CC[C@H]1CN(C(C)c2ccc(C(F)F)cn2)[C@H](CC)CN1c1cc(=O)n(C)c2cn(CC#N)nc12` (single isomer, unassigned) [Compound A347a], the IC50 at DGKζ was determined as 4800 nM; against DGKα, 173 nM.

`CC[C@H]1CN([C@H](C)c2nc(Cl)cn2CC)[C@H](CC)CN1c1cc(=O)n(C)c2cn(CC#N)nc12` (single isomer, unassigned) [Compound A191b] had an IC50 at DGKα of over 10000 nM.

On DGKα, `CC[C@H]1CN([C@H](C)c2ccc3nccnc3c2)[C@H](CC)CN1c1cc(=O)n(C(C)C)c2cn(CC#N)nc12` (single isomer, unassigned) [Compound A190b] yielded an IC50 of over 10000 nM. Still for that read-out and setting: the same measure for `CC[C@H]1CN([C@H](C)c2ncccc2OC)[C@H](CC)CN1c1cc(=O)n(C)c2cn(CC#N)nc12` (single isomer, unassigned) [Compound A92b]: over 10000 nM.

Regarding `COc1cc(F)ccc1C(C)N1C[C@H](C)N(c2cc(=O)n(C)c3cn(CC#N)nc23)C[C@H]1C` (stereo partly drawn) [Compound A248, 2-(7-((2S,5R)-4-(1-(2-omethoxy-4-fluorophenyl)ethyl)-2,5-dimethylpiperazin-1-yl)-4-methyl-5-oxo-4,5-dihydro-2H-pyrazolo[4,3-b]pyridin-2-yl)acetonitrile], the IC50 against DGKα was over 10000 nM. Same read-out and setting: the same measure for `Cc1nc2ccc(C(C)N3C[C@H](C)N(c4cc(=O)n(C)c5cn(CC#N)nc45)C[C@H]3C)cn2n1` (mixture of isomers) [Compound A321]: over 150000 nM.

Usually IC50 stands for the concentration needed to halve the response being measured.

(Values after patent US20240270751A1, “Pyrazolopyridinone Compounds” (BeiGene Ltd., priority 2021, published 2024).)
